# Source: patent US11925650B2, “Antibacterial chemical compound, its manufacturing method and its use thereof” (National Taiwan University, priority 2022, dated 2024)
# Where two headings read alike, the source gives them in different places.
# Tests used:
# [1] = system: intracellular Salmonella in RAW264.7 cells; assay: Intracellular bacteria survival, colony-forming unit assay; settings: sub-micromolar concentrations, gentamicin 20 mg/L, 24 h
# Method: The intracellular bacteria survival was assessed using HCA and a CFU assay, and the data are expressed as a percentage relative to the untreated control and are presented as the mean±SD (n=3 per group).
# S. Typhimurium 14028 = assay: Anti-intracellular Salmonella activity in infected RAW264.7 cells (HCA); type: cell-based, Salmonella Typhimurium
# [2] = system: ROS levels in infected macrophages; assay: ROS production in Salmonella-infected RAW264.7 cells (H2DCFDA); type: cell-based; settings: 1 hour; SW14 at concentrations up to 8 μM
# Method: FIG. 10. […] The viabilities of intracellular Salmonella in RAW264.7 cells treated with SW14 with/without the ROS scavengers N-acetyl-cysteine (NAC; 10 mM) or glutathione (GSH; 10 mM) are assessed using HCA. […] Salmonella-infected RAW264.7 cells are loaded with 25 μM H2DCFDA for 45 min followed by treatment with SW14 or PMA at various concentrations. […] S. Typhimurium ATCC 14028 is treated with H2O2 alone or in combination with SW14 (0.5 μM) in (C) LB or (D) LPM for 1 hour followed by evaluation by the CFU assay to determine bacterial viability.
# [3] = system: intracellular Salmonella in Atg7 knockdown RAW264.7 cells; assay: Intracellular bacterial survival in RAW264.7 cells with Atg7 knockdown (HCA); type: cell-based, S. typhimurium; settings: shRNA Atg7 knockdown RAW264.7 cells, SW14 0.3 and 1 μM, 24 hours
# From the text: FIG. 8. RAW264.7 cells transfected with a plasmid to express shRNA targeting Atg7 (shATG7). The levels of the Atg7 protein in the stable transfectants as determined by immunoblotting. Bands for Atg7 were quantified by densitometry and normalized to those of β-actin. Percentages represent the relative expression levels of Atg7 in the shATG7 transfectants compared to the vector transfectants.
# FIG. 9. Intracellular bacterial survival in SW14-treated RAW264.7 cells with shRNA-mediated knockdown of Atg7 expression. RAW264.7 cells were transfected with the empty vector (Vec) and infected with S. typhimurium followed by treatment with 0, 0.3, and 1 μM of SW14 and […] gentamicin for 24 hours. The numbers of surviving intracellular bacteria are determined by HCA and the results are expressed as a percentage of the control group. Data shown are the means; error bars represent the SD (n=3). ns: non-significant, P>0.05; *P<0.05 for the differences between the drug-treated groups and their respective control groups.
# RAW264.7 = assay: Cytotoxicity in RAW264.7 cells (HCA, MTT cell viability assay); type: cell-based; settings: Mus musculus, RAW264.7, read-out: IC50 (μM) RAW264.7
# Method: The cell viability was evaluated using HCA and an MTT cell viability assay, and the data are expressed as a percentage relative to the untreated control and are presented as the mean±SD (n=3 per group).
# S. typhimurium = assay: Bacterial growth in medium (OD600); type: cell-based; settings: LB medium and macrophage culture medium, concentrations up to 64 μM, 24 hours
# Method: FIG. 6. The growth of S. typhimurium in LB medium, cell culture medium (CCM), or LPM medium containing 0, 0.5, and 64 μM of SW14 monitored by measuring the OD600 of each bacterial culture at designated times for a total of 24 h.
# [4] = system: intracellular Salmonella in RAW264.7 cells; assay: Intracellular Salmonella viability with autophagy inhibitor 3-MA (HCA); type: cell-based, S. typhimurium
# Method: FIG. 7. Infected RAW264.7 cells treated with 10 mM of 3-MA for 1 h followed by 0.5 μM of SW14 or mock (DMSO) treatment for 24 hours.
# Autophagy was originally characterized as a cellular response to stress, but has been considered to be a defense mechanism to combat host cell infection by intracellular Salmonella. Therefore, to evaluated the role of autophagy in SW14's anti-intracellular Salmonella activity, infected cells are treated with 3-MA, an autophagy inhibitor to block cellular autophagy then followed by treatment with SW14 for 24 h. […] Compared to mock-treated cells, the viability of intracellular Salmonella in cells treated with SW14 or the combination of 3-MA and SW14 were 45% and 36.8%, respectively.
# [5] = system: S. Typhimurium within macrophages; assay: Intracellular Salmonella viability with ROS scavengers (HCA); type: cell-based, Salmonella Typhimurium; settings: NAC 10 mM or GSH 10 mM
# Method: (§1) FIG. 10. SW14 sensitizing outer membrane-compromised S. typhimurium to oxidative stress. (A) ROS scavengers reversed the suppressive effects of SW14 on intracellular S. typhimurium. The viabilities of intracellular Salmonella in RAW264.7 cells treated with SW14 with/without the ROS scavengers N-acetyl-cysteine (NAC; 10 mM) or glutathione (GSH; 10 mM) are assessed using HCA. […] Salmonella-infected RAW264.7 cells are loaded with 25 μM H2DCFDA for 45 min followed by treatment with SW14 or PMA at various concentrations. […] S. Typhimurium ATCC 14028 is treated with H2O2 alone or in combination with SW14 (0.5 μM) in (C) LB or (D) LPM for 1 hour followed by evaluation by the CFU assay to determine bacterial viability.
# Oxidative stress is another innate defense system in host cells that controls intracellular Salmonella infection. In FIG. 10(A), the suppressive effects of SW14 against S. Typhimurium within macrophages are reversed in the presence of two ROS scavengers, N-acetyl cysteine (NAC) and glutathione (GSH).
# [6] = system: S. Typhimurium ATCC 14028; assay: Bacterial susceptibility to H2O2 (CFU assay); type: cell-based, Salmonella Typhimurium; settings: 1 hour
# Method: as §1
# Next, the effects of SW14 on bacterial resistance to ROS are investigated.
# [7] = system: multidrug-resistant S. typhimurium NL08.10 and 0911R; settings: SW14 0.3-10 μM with gentamicin, 24 h
# Method: (§2) FIG. 5. RAW264.7 cells infected with (A) multidrug-resistant strains of S. Typhimurium ATCC 14028, NL08., and 100911R or (B) ciprofloxacin-resistant strains of S. typhimurium ATCC 14028, SA10, and SB10 followed by treatment with 0, 0.3, 1, 3, and 10 μM of SW14 combined with […] gentamicin for 24 h. The relative numbers of intracellular bacteria were determined using HCA and the results are expressed as relative fluorescence units (RFU).
# [8] = system: ciprofloxacin-resistant strain SA10 and SB10; settings: SA10 and SB10, SW14 0.3-10 μM with gentamicin, 24 h
# Method: as §2
# Then extended the investigation to S. typhimurium isolates with resistance to ciprofloxacin.
# [9] = system: intracellular Salmonella in RAW264.7 cells; assay: Intracellular Salmonella with cefixime or ciprofloxacin alone or combined with SW14 (HCA); type: cell-based; settings: 0.5 μM SW14 combined with CFM or CIP, 24 hours
# Method: FIG. 4. Salmonella-infected RAW264.7 cells treated with (A) 0.25, 0.5, 1, 2, and 4 mg/L of cefixime (CFM) and (B) 0.03, 0.06, 0.125, 0.25, and 0.5 mg/L of ciprofloxacin (CIP) alone or in combination with 0.5 μM SW14. After 24 hours, the relative numbers of intracellular bacteria were determined using HCA and the results are expressed as relative fluorescence units (RFU).
smiles,measurement,setting,value
"Clc1ccc2c(c1)C(NCCN1CCNCC1)=Nc1ccccc1O2 [SW14, 2-chloro-N-(2-(piperazin-1-yl)ethyl)dibenzo[b,f][1,4]oxazepin-11-amine]",effect on viability of intracellular Salmonella (CFU assay),[1],potent suppressive effect
same,Selectivity ratio (IC50/EC50),S. Typhimurium 14028; IC50 RAW264.7 / EC50 S. Typhimurium 14028,80.6
same,EC50,"S. Typhimurium 14028; Salmonella enterica, TYPHIMURIUM, RAW264.7, read-out: EC50 (μM) S. Typhimurium 14028, intracellular Salmonella in infected RAW264.7 cells",0.5 µM
same,EC50,"S. Typhimurium 14028; read-out: EC50 (μM) S. Typhimurium 14028, intracellular Salmonella in infected RAW264.7 cells",0.4 µM
same,ROS levels (H2DCFDA signal) in infected macrophages,[2],did not observe any significant change
same,susceptibility of intracellular Salmonella to SW14 after knockdown of Atg7,[3],more susceptible
same,IC50,RAW264.7,28.7 µM
same,inhibitory effect on growth of bacteria in medium,S. typhimurium,did not show significant inhibitory effects
same,"viability of intracellular Salmonella compared to mock-treated cells, combination of 3-MA and SW14","[4]; 10 mM 3-MA 1 h, then 0.5 μM SW14 24 hours",36.8%
same,viability at 0.5 µM,"[4]; Salmonella, RAW264.7, 24 h, read-out: viability of intracellular Salmonella compared to mock-treated cells",45%
same,suppressive effects against S. Typhimurium within macrophages in presence of ROS scavengers,[5],reversed
same,"susceptibility of S. typhimurium to H2O2 after SW14 treatment, LB broth","[6]; 0.5 μM SW14, LB broth",not in LB broth
same,"susceptibility of S. typhimurium to H2O2 after SW14 treatment, LPM medium","[6]; 0.5 μM SW14, LPM medium",significantly increasing
same,intracellular replication of multidrug-resistant S. typhimurium isolates,[7],remained susceptible
same,intracellular proliferation of ciprofloxacin-resistant isolates,[8],still highly sensitive
same,enhancement of antibiotic suppression of intracellular Salmonella,[9],can enhance the suppression caused by these antibiotics
